The values that follow come from US12551173B2, “System and method for single-scan rest-stress cardiac PET” (The General Hospital Corporation, priority 2012, dated 2026).

Where “and” joins values, the source holds several entries; their conditions need not be identical. Equal entries are not always repeated.

Series [1] concerns myocardium. The experiment in a line: 100-min dynamic 18F-Flurpiridaz PET in cynomolgus monkey, 2-compartment model fit. It is filed as in vivo. An excerpt:
Due to the relatively short measurements obtained in human studies, longer duration ^18F-Flurpiridaz measurements were made in a healthy 4.1-kg cynomolgus monkey. The animal was imaged under resting state and general anesthesia with 1%-2% isoflurane mixed with 100% oxygen. A 100-min dynamic ^18F-Flurpiridaz PET study, with 1.25 mCi injected dose, was acquired with a microPET P4 system from Concorde Microsystems, Inc. Images were reconstructed with filtered back-projection (FBP) into 24×5-s, 6×30-s, 5×60-s, and 18×300-s frames. The LV and RV input functions were extracted with GFADS. A region of interest was drawn over the myocardium and used to calculate the time-activity curve, which was then fitted to the standard four parameter, two-compartment model, with corrections for blood-to-tissue spillover in Eq. (3). Compartment model kinetic analysis tool (COMKAT) (Muzic Jr., R. F., et al., J. Nucl. Med. 42, 636-645, 2001; Fang, Y. H., et al., J. Nucl. Med. 51, 77-84, 2010) under MATLAB R2009a (Mathworks, Natick MA) was used to perform the nonlinear least squares for parameter estimation with the frame duration used as the statistical weight. After the kinetic parameters were estimated from the 100-min time-activity curve, the data were refit while progressively reducing the observation period. First, K1, k2, f1, and fRV were estimated as a function of study duration of the time-activity curves, ranging from 1 to 10 min. Due to the short measurement periods used, k3 and k4 were fixed to the values estimated by the 100-min data. The parameter variance of each parameter was approximated by the covariance matrix from the nonlinear least squares fitting. Then, the duration of the time-activity curve was fixed to 10 min and estimation of K1, k2, f1, and fRV was repeated with k3 fixed at values ranging from 0 to 0.1, incremented by 0.005. k4 was fixed as the value derived from fitting the 100-min data. Again, variance of each estimated parameter was approximated by the covariance matrix.
Still another aspect of the present system and methods includes ^18F-Flurpiridaz myocardial blood flow estimation using dynamic PET in non-human primates. To evaluate the parameter precision when estimating the MBF, a long dynamic study was conducted on a 4.1-kg cynomolgus monkey and the MBF precision was examined with different durations of data being used for kinetic modeling. A dynamic ^18F-Flurpiridaz imaging study was performed on a microPET P4. The animal was imaged under the resting state for 100 minutes with an injected dose of 1.25 mCi. […] The LV (FIGS. 11A-11B) and RV input function were extracted with GFADS. Time-activity curve from a region of interest drawn over the myocardium was fitted to the 2-compartment model. The estimated parameters are: K1=0.51 (SD=1.5%), k2=0.075 (SD=4.7%), k3=0.026 (SD=10.2%) and k4=0.016 (SD=10.4%). […] To evaluate the precision of K1 and k2, different study durations were used, ranging from one minute to 10 minutes to estimate K1 and k2 (with k3 and k4 fixed) as plotted for K1 in FIG. 14B.

In series [2] the test system is mitochondrial complex I. The settings on record: cited from earlier work.
Series [3] deals with myocardium. To be noted: rat model, over the physiological MBF range; cited from earlier work.
In series [4] the test system is myocardium. The settings on record: cited from earlier work.
Series [5] concerns myocardium. Kind of series: Tracer properties in the two-tissue compartment model (extraction, binding ratio). In kind it is in vivo. From the text: In another aspect, a flow measurement strategy incorporates knowledge of the basic properties of partially trapped tracers with a two-tissue compartment model, allowing simplifications appropriate to quantitative flow measurements. In this model the tracer can be in one of two states, either free, as the injected molecule, or bound to a receptor. In the example case of ^18F-Flurpiridaz, previous studies have shown that it binds to the mitochondrial complex I. The product of plasma concentration (Cr) and transport rate K1 is the force driving tracer from capillary plasma to the free space. Symbolically, K1 is the plasmato-tissue transport rate, FE, the product of flow F and the unidirectional capillary extraction fraction, E. k2 is a rate constant summarizing the egress from tissue to plasma. The rate constants k3 and k4 provide a summary description of binding and release of tracer. The full operational equation for the two compartment model is well known. In one aspect a focus is directed to the first few minutes after IV injection. […] Second, the ratio k3/(k2+k3), is between 0.2-0.6, meaning that after the first few minutes of scanning, about half the tracer entering the tissue space is bound and the effect of binding must be considered when interpreting the data. Third, it has been shown that at least an hour of scanning is required to obtain good estimates of all parameters. […]

Series [6] deals with myocardium. The experiment in a line: Kinetic analysis of clinical 18F-Flurpiridaz rest and stress PET, two-compartment tissue model, three subjects. Set-up: unit not given here. It is filed as in vivo, human. On the procedure:
To evaluate and compare the methods proposed in this work, simulation studies were performed based on the kinetic parameters derived from human studies conducted with ^18F-Flurpiridaz, formerly known as ^18F-BMS747158-02 (Lantheus Medical Imaging, North Billerica, MA). As a pyridazinone analog, ^18F-Flurpiridaz binds to the mitochondrial complex I with high affinity. The combination of high first pass extraction and complex I binding ensure a high uptake in the myocardium with long residence time, due to the high mitochondrial density in the myocardial wall. Data from a rat model have shown that ^18F-Flurpiridaz has an extraction fraction of greater than 90% over the physiological MBF range, which makes it an attractive perfusion tracer. Validation of MBF measured with ^18F-Flurpiridaz has been performed by Nekolla et al. in pigs by comparison to microsphere and ^13N-ammonia flow measurements.
As an example case, kinetic analysis was carried out based on ^18F-Flurpiridaz clinical data. ^18F-Flurpiridaz data was used to determine the local myocardial kinetics used in the simulations. […] In these studies, rest and stress imaging sessions were separated by at least 2 h. First, the rest and stress studies for each of the subjects were analyzed separately. […] For each subject, the acquired stress images were first aligned to the images of the rest study using the nonrigid image registration tool from SPM8 9 Ashburner, J., et al., Hum. Brain Mapp 7, 254-266, 1999). The LV and RV input functions for each subject and each study were extracted with generalized factor analysis on dynamic series (GFADS) (El Fakhri, G., et al., J. Nucl. Med. 46, 1264-1271, 2005; El Fakhri, G., et al., Med. Phys. 33, 1016-1024, 2006). The LV input function was used to approximate the plasma input function. No metabolite correction was performed. Because there is a 2-h gap between the rest and stress studies, the residual myocardial activity from the first tracer is mostly tracer bound to MC 1 and is nearly unaffected by the stressor. The rest and stress image volumes of the heart were segmented into 17 standard segments. Time-activity curves were calculated for each segment. The residual activity from the rest study was estimated and subtracted from the stress time-activity curve. Then, the kinetic parameters were estimated for each segment under the resting state with its 25-min time-activity curve. k3 was fixed as 0.026 (1/min) during the curve fitting. For the time-activity curve of the stress study, only data within the first 7.5 min were used in the curve fitting. After the parameters were estimated for all 17 segments, the cardiac flow reserve (CFR=K1,s/K1,r) of each segment was calculated. For the left anterior descending (LAD) territory, the segments with the two lowest CRF values were selected and the mean of each kinetic parameter was calculated from the estimated parameters of those two segments. The same calculation was repeated for right coronary artery (RCA) and left circumflex (LCX) as well. After two segments were picked for each territory, the kinetic parameters of the other 11 segments were averaged to compute the average kinetic parameters of the normal myocardium. The computation of the kinetic parameters of the normal myocardium, LAD, LCX, and RCA territories was performed separately for each subject. Table 1 summarizes kinetic parameters K1 and k2 estimated from the clinical ^18F-Flurpiridaz studies and used for Monte Carlo simulations.

Series [7] deals with myocardial blood flow. To be noted: intravenous infusion, from start of infusion; cited from earlier work.
Setting [8] is: resting state, 100 minutes of data, 1.25 mCi.
Setting [9] is: Subject 1, LAD territory, Stress.
[10] abbreviates: Subject 1, LCX territory, Stress.
[11] abbreviates: Subject 1, Normal myocardium, Rest.
Setting [12] is: Subject 1, Normal myocardium, Stress.
The mark [13] stands for this setting: Subject 1, RCA territory, Stress.
Where [14] appears, read: Subject 2, LAD territory, Stress.
Setting [15] is: Subject 2, LCX territory, Stress.
Where [16] appears, read: Subject 2, Normal myocardium, Rest.
The mark [17] stands for this setting: Subject 2, Normal myocardium, Stress.
Setting [18] is: Subject 2, RCA territory, Stress.
Where [19] appears, read: Subject 3, LAD territory, Stress.
[20] abbreviates: Subject 3, LCX territory, Stress.
Setting [21] is: Subject 3, Normal myocardium, Rest.
Setting [22] is: Subject 3, Normal myocardium, Stress.
[23] abbreviates: Subject 3, RCA territory, Stress.

As to `CC(C)(C)n1ncc(OCc2ccc(COCCF)cc2)c(Cl)c1=O` [18F-Flurpiridaz], in series [1] (rest state, k3 fixed at values between 0 and 0.1 min^-1 (FIG. 2B)), the “estimated K1 as a function of the nominal value of k3” value is given as 0.498 to 0.507. In addition, the K1 is 0.51 (SD=1.5%) in series [1] (setting [8]); 0.56 in series [6] (Subject 1, LAD territory, Rest); 1.04 in series [6] (setting [9]); 0.58 in series [6] (Subject 1, LCX territory, Rest); 0.99 in series [6] (setting [10]); 0.68 in series [6] (setting [11]). Also, the K1 in series [6] (setting [12]) was 1.96; in series [6] (Subject 1, RCA territory, Rest) it was 0.74; in series [6] (setting [13]), 1.26; in series [6] (Subject 2, LAD territory, Rest), 0.78; in series [6] (setting [14]), 1.60; in series [6] (Subject 2, LCX territory, Rest) it was 0.94. Further, the K1 in series [6] (setting [15]) was 2.10; in series [6] (setting [16]) it was 0.738 and 0.74; in series [6] (setting [17]), 2.292 and 2.29; in series [6] (Subject 2, RCA territory, Rest), 0.68; in series [6] (setting [18]), 1.43; in series [6] (Subject 3, LAD territory, Rest), 0.64. Also, the K1 in series [6] (setting [19]) is reported as 1.58; in series [6] (Subject 3, LCX territory, Rest), 0.69; in series [6] (setting [20]) it was 1.61; in series [6] (setting [21]), 0.60; in series [6] (setting [22]), 2.09; in series [6] (Subject 3, RCA territory, Rest), 0.58. In series [6] (setting [23]), the K1 is 0.68. In addition, the k2 in series [1] (setting [8]) is recorded as 0.075 (SD=4.7%); in series [6] (Subject 1, LAD territory, Rest), 0.07; in series [6] (setting [9]), 0.05; in series [6] (Subject 1, LCX territory, Rest) it was 0.08; in series [6] (setting [10]), 0.05; in series [6] (setting [11]) it was 0.08. Further, the k2 in series [6] (setting [12]) turned out to be 0.07; in series [6] (Subject 1, RCA territory, Rest), 0.08; in series [6] (setting [13]), 0.08; in series [6] (Subject 2, LAD territory, Rest), 0.11; in series [6] (setting [14]), 0.07; in series [6] (Subject 2, LCX territory, Rest), 0.13. The k2 in series [6] (setting [15]) was 0.10; in series [6] (setting [16]) it was 0.108 and 0.11; in series [6] (setting [17]) it was 0.118 and 0.12; in series [6] (Subject 2, RCA territory, Rest), 0.08; in series [6] (setting [18]) it was 0.11; in series [6] (Subject 3, LAD territory, Rest), 0.04. For the same molecule, the k2 in series [6] (setting [19]) was determined as 0.18; in series [6] (Subject 3, LCX territory, Rest), 0.05; in series [6] (setting [20]), 0.24; in series [6] (setting [21]), 0.05; in series [6] (setting [22]), 0.23; in series [6] (Subject 3, RCA territory, Rest) it was 0.03. The k2 in series [6] (setting [23]) was 0.17. Moreover, the k3 in series [1] (setting [8]) is listed as 0.026 (SD=10.2%). Also, the k4 in series [1] (setting [8]) is reported as 0.016 (SD=10.4%). The “binding to mitochondrial complex I” value in series [2] is given as “high affinity”. Further, the extraction fraction entry in series [3] is “greater than 90%”. The unidirectional extraction fraction result in series [4] (at all physiological flow rates) is “greater than 90%”. Moreover, the first-pass extraction result in series [4] (in the coronary circulation) was “nearly complete”. The “ratio k3/(k2+k3)” value in series [5] is 0.2-0.6.
As to `Nc1ncnc2c1ncn2[C@@H]1O[C@H](CO)[C@@H](O)[C@H]1O` [adenosine], the “time to reach the peak hyperemia” value in series [7] is given as 1.5 min.
Turning to `OCCN(CCO)c1nc(N2CCCCC2)c2nc(N(CCO)CCO)nc(N3CCCCC3)c2n1` [dipyridamole], the “time to reach the peak hyperemia” value in series [7] is given as 6.5 min.
